Assay results as given in patent US20040161399A1, “Use of nonimmunosuppressive [$g(g)-hydroxy-n-methyl-l-leucine4]cyclosporin derivatives for treating hair loss” (priority 2001, published 2004).
Starred links: 1 amine or outer side, 2 acyl side, 3 side chain; linkers in the order of their positions; H or OH if unused. Non-standard residues stand in square brackets, D forms with d. Residues, ends and D or L forms follow the SMILES beside them. AlaΨ(CSNH)dAla = C[C@H](N[*:1])C(=S)N[C@H](C)C(=O)[*:2]; MeBmt = C/C=C/C[C@@H](C)[C@@H](O)[C@H](NC)C(=O)O; NMeLeu(4-OH) = CN[C@@H](CC(C)(C)O)C(=O)O; NMeL = CN[C@@H](CC(C)C)C(=O)O; NMeV = CN[C@H](C(=O)O)C(C)C; dHiv = CC(C)[C@@H](O)C(=O)O; dNMeA = CN[C@H](C)C(=O)O; Abu = CC[C@H](N)C(=O)O; Sar = CNCC(=O)O

Tests used:
Female C57BL/6 mice = assay: Evaluation of hair restoring effect in mice (topical application to shaved back); type: in vivo; conditions: for Area rate of hair regrowth (%): C57BL/6 mice, hair-removed back, 100 μl of 0.1% w/v once a day for 30 days, visual examination; for hair restoring / hair growth promoting effect (in words): qualitative statement
Experimental: Evaluation of Hair Restoring Effect in Mice
Female C57BL/6 mice of ages 6 to 7 weeks were utilized. After removing hairs on the middle of the back with an electric shaver, the mice were weighed and randomly assigned to the test groups with an even distribution of weights. […] The results were determined by visual examination, in terms of degrees of hair regrowth. With respect to respective hair-removed areas, rates of new hair growth were examined and compared.

[1] = test system: splenocytes (responder cells from BALB/c mice, stimulator cells from C57BL/6 mice); assay: Mixed Lymphocyte Reaction (MLR) method, 3H-thymidine incorporation; type: cell-based; conditions: qualitative statement
Experimental: Evaluation of Non-Immunosuppressive Activity In Vitro
Responder cells from BALB/c mice were mixed with an equal number of stimulator cells from C57BL/6 mice pre-treated with mitomycin. […] After 4 days of incubation, ^3H-thymidine was added to the mixtures and incubated for an additional 4 hours. Then, the amount of thymidine incorporated into the cells was measured (liquid scintillation counter), and IC50 (μg/ml) of respective cyclosporins were calculated.

Compound: C/C=C/C[C@@H](C)[C@@H](O)[C@H]1C(=O)N[C@@H]([C@@H](C)O)C(=O)N(C)CC(=O)N(C)[C@@H](CC(C)(C)O)C(=O)N[C@@H](CC(C)C)C(=O)N(C)[C@@H](CC(C)C)C(=O)N[C@@H](C)C(=O)O[C@H](C(C)C)C(=O)N(C)[C@@H](CC(C)C)C(=O)N[C@@H](CC(C)C)C(=O)N(C)[C@@H](C(C)C)C(=O)N1C [[L-threonine^2][γ-hydroxy-N-methyl-L-leucine^4][L-leucine^5][D-2-hydroxyisovaleric acid^8][L-leucine^10] cyclosporin A] (cyclo([MeBmt]T[Sar][NMeLeu(4-OH)]L[NMeL]A[dHiv][NMeL]L[NMeV]))
- Area rate of hair regrowth (%) (Female C57BL/6 mice): 90%

Compound: [γ-hydroxy-N-methyl-L-leucine^4] cyclosporin A [reference compound]
- hair restoring / hair growth promoting effect (in words) (Female C57BL/6 mice): has a hair restoring effect
- immunosuppressive activity (in words) [1]: no immunosuppressive activity

Compound: C/C=C/C[C@@H](C)[C@@H](O)[C@H]1C(=O)N[C@@H](CC)C(=O)N(C)CC(=O)N(C)[C@@H](CC(C)(C)O)C(=O)N[C@@H](C(C)C)C(=O)N(C)[C@@H](CC(C)C)C(=O)N[C@@H](C)C(=S)N[C@H](C)C(=O)N(C)[C@@H](CC(C)C)C(=O)N(C)[C@@H](CC(C)C)C(=O)N(C)[C@@H](C(C)C)C(=O)N1C [[γ-hydroxy-N-methyl-L-leucine^4][alaninethiomide^7, ^7ψ^8 CS—NH] cyclosporin A] (cyclo([MeBmt][Abu][Sar][NMeLeu(4-OH)]V[NMeL][AlaΨ(CSNH)dAla][NMeL][NMeL][NMeV]))
- Area rate of hair regrowth (%) (Female C57BL/6 mice): 91%

Compound: C/C=C/C[C@@H](C)[C@@H](O)[C@H]1C(=O)N[C@@H](CC)C(=O)N(C)[C@H](C)C(=O)N(C)[C@@H](CC(C)(C)O)C(=O)N[C@@H](C(C)C)C(=O)N(C)[C@@H](CC(C)C)C(=O)N[C@@H](C)C(=O)N[C@H](C)C(=O)N(C)[C@@H](CC(C)C)C(=O)N(C)[C@@H](CC(C)C)C(=O)N(C)[C@@H](C(C)C)C(=O)N1C [[N-methyl-D-alanine^3][γ-hydroxy-N-methyl-L-leucine^4] cyclosporin A] (cyclo([MeBmt][Abu][dNMeA][NMeLeu(4-OH)]V[NMeL]A[dA][NMeL][NMeL][NMeV]))
- Area rate of hair regrowth (%) (Female C57BL/6 mice): 95%
- hair restoring / hair growth promoting effect (in words) (Female C57BL/6 mice): has a hair restoring effect
- immunosuppressive activity (in words) [1]: reduced
